{"source": "paper PMC3880629", "about": "(Journal of medicinal chemistry, 2013)", "key": {"CB1 wild-type receptor [1]": {"biological_target": "T1, CB1 wild-type receptor (Homo sapiens, UniProt P21554)", "T1 sequence (P21554 whole entry)": "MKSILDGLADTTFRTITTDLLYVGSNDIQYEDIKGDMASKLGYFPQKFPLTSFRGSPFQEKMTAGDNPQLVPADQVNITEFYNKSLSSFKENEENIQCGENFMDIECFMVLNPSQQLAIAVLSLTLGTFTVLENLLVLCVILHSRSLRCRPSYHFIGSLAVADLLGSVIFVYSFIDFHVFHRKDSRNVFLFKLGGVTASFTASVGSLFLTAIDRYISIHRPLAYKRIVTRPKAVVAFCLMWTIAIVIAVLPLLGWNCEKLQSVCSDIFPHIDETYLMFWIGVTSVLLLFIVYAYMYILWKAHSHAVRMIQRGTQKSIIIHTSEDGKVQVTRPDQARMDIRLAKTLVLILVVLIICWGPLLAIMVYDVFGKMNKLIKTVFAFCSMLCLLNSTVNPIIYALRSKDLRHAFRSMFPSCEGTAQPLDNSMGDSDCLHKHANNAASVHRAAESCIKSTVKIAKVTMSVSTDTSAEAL", "details": "earlier report, given for comparison; cited from earlier work"}, "CB1 wild-type receptor [2]": {"biological_target": "T1, CB1 wild-type receptor", "details": "cited from earlier work; for Effect on CP55,940-induced [35S]GTPγS binding in the presence of allosteric modulator: earlier report, given for comparison"}, "CB1 wild-type receptor [3]": {"biological_target": "T1, CB1 wild-type receptor", "assay_type": "binding", "details": "for α: binding cooperativity factor between CP55,940 and the tested allosteric modulator: HEK293 cell membranes expressing CB1, tracer [3H]CP55,940"}, "[4]": {"assay": "Solubility in common organic solvents", "assay_type": "physicochemical", "details": "acetone, ethyl acetate, tetrahydrofuran, dichloromethane, diethyl ether, ethanol and methanol"}, "CB1 wild-type receptor [5]": {"biological_target": "T1, CB1 wild-type receptor", "assay": "[35S]GTPγS binding assay", "assay_type": "biochemical", "details": "for Concentration giving complete inhibition of CP55,940-induced [35S]GTPγS binding / Effect on CP55,940-induced [35S]GTPγS binding in the presence of allosteric modulator: HEK293 cell membranes expressing CB1"}}, "note": "Where two headings read alike, the source gives them in different places."}
{"smiles": "CCCCCc1c(C(=O)NCCc2ccc(N3CCCCC3)cc2)[nH]c2ccc(Cl)cc12", "note": "[11a, 5-Chloro-3-pentyl-N-(4-(piperidin-1-yl)phenethyl)-1H-indole-2-carboxamide]", "values": [{"measurement": "α: binding cooperativity factor between CP55,940 and the tested allosteric modulator", "setting": "CB1 wild-type receptor [1]", "value": 17.6}, {"measurement": "Concentration at which G protein coupling was inhibited", "setting": "CB1 wild-type receptor [2]", "value": 3.2, "unit": "µM"}, {"measurement": "Effect on CP55,940-induced [35S]GTPγS binding in the presence of allosteric modulator", "setting": "CB1 wild-type receptor [2]", "value": "Antagonizing"}]}
{"smiles": "O=C(NCCc1ccc(N2CCCCC2)cc1)c1[nH]c2ccc(Cl)cc2c1-c1ccccc1", "note": "[11b, 5-Chloro-3-phenyl-N-(4-(piperidin-1-yl)phenethyl)-1H-indole-2-carboxamide]", "values": [{"measurement": "α: binding cooperativity factor between CP55,940 and the tested allosteric modulator", "setting": "CB1 wild-type receptor [3]", "value": 1.0}, {"measurement": "Solubility in organic solvents", "setting": "[4]", "value": "very poor solubility"}]}
{"smiles": "O=C(NCCc1ccc(N2CCCCC2)cc1)c1[nH]c2ccc(Cl)cc2c1Cc1ccccc1", "note": "[11c, 3-Benzyl-5-chloro-N-(4-(piperidin-1-yl)phenethyl)-1H-indole-2-carboxamide]", "values": [{"measurement": "α: binding cooperativity factor between CP55,940 and the tested allosteric modulator", "setting": "CB1 wild-type receptor [3]", "value": 11.37}, {"measurement": "Solubility in organic solvents", "setting": "[4]", "value": "very poor solubility"}]}
{"smiles": "O=C(NCCc1ccc(N2CCCCC2)cc1)c1[nH]c2ccc(Cl)cc2c1CC1CCCCC1", "note": "[11d, 5-Chloro-3-(cyclohexylmethyl)-N-(4-(piperidin-1-yl)phenethyl)-1H-indole-2-carboxamide]", "values": [{"measurement": "α: binding cooperativity factor between CP55,940 and the tested allosteric modulator", "setting": "CB1 wild-type receptor [3]", "value": 9.84}, {"measurement": "Solubility in organic solvents", "setting": "[4]", "value": "very poor solubility"}]}
{"smiles": "CCCCCCCc1c(C(=O)NCCc2ccc(N3CCCCC3)cc2)[nH]c2ccc(Cl)cc12", "note": "[11e]", "values": [{"measurement": "α: binding cooperativity factor between CP55,940 and the tested allosteric modulator", "setting": "CB1 wild-type receptor [3]", "value": 7.38}]}
{"smiles": "CCCCCCCCCc1c(C(=O)NCCc2ccc(N3CCCCC3)cc2)[nH]c2ccc(Cl)cc12", "note": "[11f]", "values": [{"measurement": "α: binding cooperativity factor between CP55,940 and the tested allosteric modulator", "setting": "CB1 wild-type receptor [3]", "value": 6.80}, {"measurement": "Concentration giving complete inhibition of CP55,940-induced [35S]GTPγS binding", "setting": "CB1 wild-type receptor [5]", "value": "at least 10 μM"}, {"measurement": "Effect on CP55,940-induced [35S]GTPγS binding in the presence of allosteric modulator", "setting": "CB1 wild-type receptor [5]", "value": "Antagonizing"}]}
{"smiles": "CCCCCc1c(C(=O)NCc2ccc(N3CCCCC3)cc2)[nH]c2ccc(Cl)cc12", "note": "[11g, 5-Chloro-3-pentyl-N-(4-(piperidin-1-yl)benzyl)-1H-indole-2-carboxamide]", "values": [{"measurement": "α: binding cooperativity factor between CP55,940 and the tested allosteric modulator", "setting": "CB1 wild-type receptor [3]", "value": 1.0}]}
{"smiles": "CCCCCc1c(C(=O)NCCc2ccc(N3CCOCC3)cc2)[nH]c2ccc(Cl)cc12", "note": "[11h, 5-Chloro-N-(4-morpholinophenethyl)-3-pentyl-1H-indole-2-carboxamide]", "values": [{"measurement": "α: binding cooperativity factor between CP55,940 and the tested allosteric modulator", "setting": "CB1 wild-type receptor [3]", "value": 10.0}, {"measurement": "Concentration giving complete inhibition of CP55,940-induced [35S]GTPγS binding", "setting": "CB1 wild-type receptor [5]", "value": "at least 10 μM"}, {"measurement": "Effect on CP55,940-induced [35S]GTPγS binding in the presence of allosteric modulator", "setting": "CB1 wild-type receptor [5]", "value": "Antagonizing"}]}
{"smiles": "CCCCCc1c(C(=O)NCCc2ccc(Oc3ccccc3)cc2)[nH]c2ccc(Cl)cc12", "note": "[11i, 5-Chloro-3-pentyl-1H-indole-2-carboxylic acid [2-(4-phenoxy-phenyl)-ethyl]-amide]", "values": [{"measurement": "α: binding cooperativity factor between CP55,940 and the tested allosteric modulator", "setting": "CB1 wild-type receptor [3]", "value": 13.15}]}
{"smiles": "CCCCCc1c(C(=O)NCCc2ccc(N(C)C)cc2)[nH]c2ccc(Cl)cc12", "note": "[11j, 5-Chloro-N-(4-(dimethylamino)phenethyl)-3-pentyl-1H-indole-2-carboxamide]", "values": [{"measurement": "α: binding cooperativity factor between CP55,940 and the tested allosteric modulator", "setting": "CB1 wild-type receptor [3]", "value": 16.55}, {"measurement": "Concentration giving complete inhibition of CP55,940-induced [35S]GTPγS binding", "setting": "CB1 wild-type receptor [5]", "value": 1, "unit": "µM"}, {"measurement": "Effect on CP55,940-induced [35S]GTPγS binding in the presence of allosteric modulator", "setting": "CB1 wild-type receptor [5]", "value": "Antagonizing"}, {"measurement": "Concentration giving complete inhibition of basal [35S]GTPγS binding", "setting": "CB1 wild-type receptor [5]; absence of orthosteric ligand, 5 μM GDP", "value": 10, "unit": "µM"}]}
{"smiles": "CCCCCc1c(C(=O)NC(CO)Cc2ccc(N(C)C)cc2)[nH]c2ccc(Cl)cc12", "note": "(centres unmarked) [11k, 5-Chloro-N-(1-(4-(dimethylamino)phenyl)-3-hydroxypropan-2-yl)-3-pentyl-1H-indole-2-carboxamide]", "values": [{"measurement": "α: binding cooperativity factor between CP55,940 and the tested allosteric modulator", "setting": "CB1 wild-type receptor [3]", "value": 13.27}]}
{"smiles": "CCc1c(C(=O)NCCc2ccc(N(C)C)cc2)[nH]c2ccc(Cl)cc12", "note": "[11l, 5-Chloro-N-(4-(dimethylamino)phenethyl)-3-ethyl-1H-indole-2-carboxamide]", "values": [{"measurement": "α: binding cooperativity factor between CP55,940 and the tested allosteric modulator", "setting": "CB1 wild-type receptor [3]", "value": 19.68}]}
{"smiles": "O=C(NCCc1ccc(N2CCCCC2)cc1)c1cc2cc(Cl)ccc2o1", "note": "[13a, 5-Chloro-N-(4-(piperidin-1-yl)phenethyl)benzofuran-2-carboxamide]", "values": [{"measurement": "α: binding cooperativity factor between CP55,940 and the tested allosteric modulator", "setting": "CB1 wild-type receptor [3]", "value": 1.0}]}
{"smiles": "CCc1c(C(=O)NCCc2ccc(N3CCCCC3)cc2)oc2ccc(Cl)cc12", "note": "[13b, 5-Chloro-3-ethyl-N-(4-(piperidin-1-yl)phenethyl)benzofuran-2-carboxamide]", "values": [{"measurement": "α: binding cooperativity factor between CP55,940 and the tested allosteric modulator", "setting": "CB1 wild-type receptor [3]", "value": 18.04}, {"measurement": "Concentration giving complete inhibition of CP55,940-induced [35S]GTPγS binding", "setting": "CB1 wild-type receptor [5]", "value": "at least 10 μM"}, {"measurement": "Effect on CP55,940-induced [35S]GTPγS binding in the presence of allosteric modulator", "setting": "CB1 wild-type receptor [5]", "value": "Antagonizing"}]}
{"smiles": "CCc1c(C(=O)NCCc2ccc(N(C)C)cc2)oc2ccc(Cl)cc12", "note": "[13c, 5-Chloro-N-(4-(dimethylamino)phenethyl)-3-ethylbenzofuran-2-carboxamide]", "values": [{"measurement": "Fold increase in KB on replacing the indole ring with a benzofuran ring", "setting": "CB1 wild-type receptor [3]; 13c versus 11l", "value": 3, "unit": "fold"}, {"measurement": "α: binding cooperativity factor between CP55,940 and the tested allosteric modulator", "setting": "CB1 wild-type receptor [3]", "value": 11.59}]}
{"smiles": "CN(C)c1ccc(CCNC(=O)c2cc3cc(Cl)ccc3o2)cc1", "note": "[13d, 5-Chloro-N-(4-(dimethylamino)phenethyl)benzofuran-2-carboxamide]", "values": [{"measurement": "α: binding cooperativity factor between CP55,940 and the tested allosteric modulator", "setting": "CB1 wild-type receptor [3]", "value": 1.0}]}
{"smiles": "CCCCCCC(C)(C)c1ccc([C@@H]2C[C@H](O)CC[C@H]2CCCO)c(O)c1", "note": "[CP55,940, 2-[(1R,2R,5R)-5-hydroxy-2-(3-hydroxypropyl)cyclohexyl]-5-(2-methyloctan-2-yl)phenol, reference compound]", "values": [{"measurement": "Emax of CP55,940-induced [35S]GTPγS binding", "setting": "CB1 wild-type receptor [5]; in the absence of allosteric modulator (11j), mean ± S.E.", "value": "113.0 ± 2.6", "unit": "fmol/mg"}]}
{"smiles": "CCc1c(C(=O)NCCc2ccc(N3CCCCC3)cc2)[nH]c2ccc(Cl)cc12", "note": "[compound 1, 5-chloro-3-ethyl-N-(4-(piperidin-1-yl)phenethyl)-1H-indole-2-carboxamide, reference compound]", "values": [{"measurement": "α: binding cooperativity factor between CP55,940 and the tested allosteric modulator", "setting": "CB1 wild-type receptor [1]", "value": 6.95}, {"measurement": "Concentration at which G protein coupling was inhibited", "setting": "CB1 wild-type receptor [2]", "value": 3.2, "unit": "µM"}, {"measurement": "Effect on CP55,940-induced [35S]GTPγS binding in the presence of allosteric modulator", "setting": "CB1 wild-type receptor [2]", "value": "Antagonizing"}]}
